From patent US20250179066A1, “ZWITTERIONIC ANTIBACTERIAL COMPOUNDS” (Hoffmann-La Roche Inc., priority 2022, published 2025)

The compounds below were run on Acinetobacter baumannii ATCC17961 (assay: Antimicrobial susceptibility testing: 90% growth inhibitory concentration (IC90) determination). Settings: 90% growth inhibitory concentration against Acinetobacter baumannii ATCC17961, Iso-Sensitest broth, OD 600 nm over 16 h; read-out: ATCC 17961 IC90.
Assay type: cell-based
Description: The in vitro antimicrobial activity of the compounds was determined according to the following procedure: The assay used a 10-points Iso-Sensitest broth medium to measure quantitatively the in vitro activity of the compounds against Acinetobacter baumannii ATCC17961. Stock compounds in DMSO were serially twofold diluted (e.g. range from 10 to 0.0195 μM final concentration) in 384 wells microtiter plates and inoculated with 49 μL the bacterial suspension in Iso-Sensitest medium to have a final cell concentration of ˜5×10^(5) CFU/mL in a final volume/well of 50 μL/well. Microtiter plates were incubated at 35±2° C. Bacterial cell growth was determined with the measurement of optical density at λ=600 nm each min over a time course of 16 h. Growth inhibition was calculated during the logarithmic growth of the bacterial cells with determination of the concentration inhibiting 50% (IC50) and 90% (IC90) of the growth. Table 1 provides the 90% growth inhibitory concentrations (IC90) in micromoles per liter of the compounds of present invention obtained against the strain Acinetobacter baumannii ATCC17961.
`Cn1c(-c2cn(-c3ccc(NCCN)cn3)nc2C(F)(F)F)cnc1C(=O)Nc1ccc(C(=O)N2CCN(C(=O)[C@H]3CC[N@+](CC(=O)O)(CC4CNC4)CC3)CC2)c(Cl)c1` [Example 10, cis-2-[4-[4-[4-[[5-[1-[5-(2-Aminoethylamino)-2-pyridyl]-3-(trifluoromethyl)pyrazol-4-yl]-1-methyl-imidazole-2-carbonyl]amino]-2-chloro-benzoyl]piperazine-1-carbonyl]-1-(azetidin-3-ylmethyl)piperidin-1-ium-1-yl]acetic Acid.1:1 2,2,2-trifluoroacetic Acid.1:1 2,2,2-trifluoroacetate] gave an IC90 of 0.17 µM.

Same assay, conditions: Acinetobacter baumannii, ATCC17961, 16 h, 90% growth inhibitory concentration against Acinetobacter baumannii ATCC17961, Iso-Sensitest broth, OD 600 nm over 16 h; read-out: ATCC 17961 IC90
For `Cn1c(-c2cn(-c3ccc(N)cn3)nc2C(F)(F)F)cnc1C(=O)Nc1ccc(C(=O)N2CCN(C(=O)CCC[N+](C)(CCCN)CC(=O)O)CC2)c(Cl)c1` (racemic) [Example 65, rac-3-aminopropyl-[4-[4-[4-[[5-[1-(5-amino-2-pyridyl)-3-(trifluoromethyl)pyrazol-4-yl]-1-methyl-imidazole-2-carbonyl]amino]-2-chloro-benzoyl]piperazino]-4-keto-butyl]-(carboxymethyl)-methyl-ammonium. 1:1 2,2,2-trifluoroacetate], the IC90 was 0.72 µM.
`Cn1c(-c2cn(-c3ccc(CCN)cn3)nc2C(F)(F)F)cnc1C(=O)Nc1ccc(C(=O)N2CCN(C(=O)C3CC[N+](CC(=O)O)(CC4CNC4)CC3)CC2)c(Cl)c1` (stereo not drawn) [Example 1, 2-[4-[4-[4-[[5-[1-[5-(2-Aminoethyl)-2-pyridyl]-3-(trifluoromethyl)pyrazol-4-yl]-1-methyl-imidazole-2-carbonyl]amino]-2-chloro-benzoyl]piperazine-1-carbonyl]-1-(azetidin-3-ylmethyl)piperidin-1-ium-1-yl]acetic Acid.1:1 2,2,2-trifluoroacetic Acid.1:1 2,2,2-trifluoroacetate] was tested, and the IC90 was 0.33 µM.
With `Cn1c(-c2cn(-c3ccc(OCCN)cn3)nc2C(F)(F)F)cnc1C(=O)Nc1ccc(C(=O)N2CCN(C(=O)C3CC[N+](CC(=O)O)(CC4CNC4)CC3)CC2)c(Cl)c1` (stereo not drawn) [Example 2, 2-[4-[4-[4-[[5-[1-[5-(2-aminoethoxy)-2-pyridyl]-3-(trifluoromethyl)pyrazol-4-yl]-1-methyl-imidazole-2-carbonyl]amino]-2-chloro-benzoyl]piperazine-1-carbonyl]-1-(azetidin-3-ylmethyl)piperidin-1-ium-1-yl]acetic acid. 1:1 2,2,2-trifluoroacetic acid. 1:1 2,2,2-trifluoroacetate] the IC90 was 0.33 µM.
`Cn1c(-c2cn(-c3ccc(N4CCNCC4)cn3)nc2C(F)(F)F)cnc1C(=O)Nc1ccc(C(=O)N2CCN(C(=O)C3CC[N+](CC(=O)O)(CC4CNC4)CC3)CC2)c(Cl)c1` (stereo not drawn) [Example 3, 2-[1-(azetidin-3-ylmethyl)-4-[4-[2-chloro-4-[[1-methyl-5-[1-(5-piperazino-2-pyridyl)-3-(trifluoromethyl)pyrazol-4-yl]imidazole-2-carbonyl]amino]benzoyl]piperazine-1-carbonyl]piperidin-1-ium-1-yl]acetic acid. 1:1 2,2,2-trifluoroacetic acid. 1:1 2,2,2-trifluoroacetate] was tested, and the IC90 was 0.39 µM.
`CNCCNc1ccc(-n2cc(-c3cnc(C(=O)Nc4ccc(C(=O)N5CCN(C(=O)C6CC[N+](CC(=O)O)(CC7CNC7)CC6)CC5)c(Cl)c4)n3C)c(C(F)(F)F)n2)nc1` (stereo not drawn) [Example 4, 2-[1-(azetidin-3-ylmethyl)-4-[4-[2-chloro-4-[[1-methyl-5-[1-[5-[2-(methylamino)ethylamino]-2-pyridyl]-3-(trifluoromethyl)pyrazol-4-yl]imidazole-2-carbonyl]amino]benzoyl]piperazine-1-carbonyl]piperidin-1-ium-1-yl]acetic acid. 1:1 2,2,2-trifluoroacetate] showed an IC90 of 0.39 µM.
With `Cn1c(-c2cn(-c3ccc(NCC4CCNCC4)cn3)nc2C(F)(F)F)cnc1C(=O)Nc1ccc(C(=O)N2CCN(C(=O)C3CC[N+](CC(=O)O)(CC4CNC4)CC3)CC2)c(Cl)c1` (stereo not drawn) [Example 5, 2-[1-(azetidin-3-ylmethyl)-4-[4-[2-chloro-4-[[1-methyl-5-[1-[5-(4-piperidylmethylamino)-2-pyridyl]-3-(trifluoromethyl)pyrazol-4-yl]imidazole-2-carbonyl]amino]benzoyl]piperazine-1-carbonyl]piperidin-1-ium-1-yl]acetic acid. 1:1 2,2,2-trifluoroacetate] the IC90 was 0.59 µM.
With `Cn1c(-c2cn(-c3ccc(NCC4CC4(F)F)cn3)nc2C(F)(F)F)cnc1C(=O)Nc1ccc(C(=O)N2CCN(C(=O)C3CC[N+](CC(=O)O)(CC4CNC4)CC3)CC2)c(Cl)c1` (stereo not drawn) [Example 6, 2-[1-(azetidin-3-ylmethyl)-4-[4-[2-chloro-4-[[5-[1-[5-[(2,2-difluorocyclopropyl)methylamino]-2-pyridyl]-3-(trifluoromethyl)pyrazol-4-yl]-1-methyl-imidazole-2-carbonyl]amino]benzoyl]piperazine-1-carbonyl]piperidin-1-ium-1-yl]acetic acid. 1:1 2,2,2-trifluoroacetate] the IC90 was 0.69 µM.
Work on `Cn1c(-c2cn(-c3ccc(N)nc3)nc2C(F)(F)F)cnc1C(=O)Nc1ccc(C(=O)N2CCN(C(=O)C3CC[N+](CC(=O)O)(CC4CNC4)CC3)CC2)c(Cl)c1` (stereo not drawn) [Example 7, 2-[4-[4-[4-[[5-[1-(6-amino-3-pyridyl)-3-(trifluoromethyl)pyrazol-4-yl]-1-methyl-imidazole-2-carbonyl]amino]-2-chloro-benzoyl]piperazine-1-carbonyl]-1-(azetidin-3-ylmethyl)piperidin-1-ium-1-yl]acetic acid. 1:1 2,2,2-trifluoroacetate] yielded an IC90 of 1.48 µM.
`Cn1c(-c2cn(-c3ccc(NCCN)nc3)nc2C(F)(F)F)cnc1C(=O)Nc1ccc(C(=O)N2CCN(C(=O)C3CC[N+](CC(=O)O)(CC4CNC4)CC3)CC2)c(Cl)c1` (stereo not drawn) [Example 8, 2-[4-[4-[4-[[5-[1-[6-(2-aminoethylamino)-3-pyridyl]-3-(trifluoromethyl)pyrazol-4-yl]-1-methyl-imidazole-2-carbonyl]amino]-2-chloro-benzoyl]piperazine-1-carbonyl]-1-(azetidin-3-ylmethyl)piperidin-1-ium-1-yl]acetic acid. 1:1 2,2,2-trifluoroacetate] was tested, and the IC90 was 1.55 µM.
`Cn1c(-c2cn(-c3ccc4[nH]ccc4n3)nc2C(F)(F)F)cnc1C(=O)Nc1ccc(C(=O)N2CCN(C(=O)CCC[N+](CCCCN)(CCCCN)CC(=O)O)CC2)c(Cl)c1` [Example 9, Bis(4-aminobutyl)-(carboxymethyl)-[4-[4-[2-chloro-4-[[1-methyl-5-[1-(1H-pyrrolo[3,2-b]pyridin-5-yl)-3-(trifluoromethyl)pyrazol-4-yl]imidazole-2-carbonyl]amino]benzoyl]piperazino]-4-keto-butyl]ammonium.1:1 2,2,2-trifluoroacetic Acid. 1:1 2,2,2-trifluoroacetate] was tested, and the IC90 was 0.1 µM.
`Cn1c(-c2cn(-c3ccc(N)cc3F)nc2C(F)(F)F)cnc1C(=O)Nc1ccc(C(=O)N2CCN(C(=O)CCC[N+](CCCCN)(CCCCN)CC(=O)O)CC2)c(Cl)c1` [Example 11, bis(4-aminobutyl)-[4-[4-[4-[[5-[1-(4-amino-2-fluoro-phenyl)-3-(trifluoromethyl)pyrazol-4-yl]-1-methyl-imidazole-2-carbonyl]amino]-2-chloro-benzoyl]piperazino]-4-keto-butyl]-(carboxymethyl)ammonium. 1:1 2,2,2-trifluoroacetic acid. 1:1 2,2,2-trifluoroacetate] showed an IC90 of 0.17 µM.
`Cn1c(-c2cn(-c3ccc(NCCN)cn3)nc2C(F)(F)F)cnc1C(=O)Nc1ccc(C(=O)N2CCN(C(=O)C3CC[N+](CC(=O)O)(CC4CNC4)CC3)CC2)c(Cl)c1` (stereo not drawn) [Example 12, 2-[4-[4-[4-[[5-[1-[5-(2-aminoethylamino)-2-pyridyl]-3-(trifluoromethyl)pyrazol-4-yl]-1-methyl-imidazole-2-carbonyl]amino]-2-chloro-benzoyl]piperazine-1-carbonyl]-1-(azetidin-3-ylmethyl)piperidin-1-ium-1-yl]acetic acid. 1:1 2,2,2-trifluoroacetic acid. 1:1 2,2,2-trifluoroacetate] showed an IC90 of 0.18 µM.
Work on `Cn1c(-c2cn(-c3ccc4[nH]ccc4n3)nc2C(F)(F)F)cnc1C(=O)Nc1ccc(C(=O)N2CCN(C(=O)CCC[N+](CCCN)(CCCN)CC(=O)O)CC2)c(Cl)c1` [Example 13, bis(3-aminopropyl)-(carboxymethyl)-[4-[4-[2-chloro-4-[[1-methyl-5-[1-(1H-pyrrolo[3,2-b]pyridin-5-yl)-3-(trifluoromethyl)pyrazol-4-yl]imidazole-2-carbonyl]amino]benzoyl]piperazino]-4-keto-butyl]ammonium. 1:1 2,2,2-trifluoroacetic acid. 1:1 2,2,2-trifluoroacetate] yielded an IC90 of 0.2 µM.
`Cn1c(-c2cn(-c3cc4[nH]ccc4cn3)nc2C(F)(F)F)cnc1C(=O)Nc1ccc(C(=O)N2CCN(C(=O)[C@H]3CC[N@+](CC(=O)O)(CC4CNC4)CC3)CC2)c(Cl)c1` [Example 14, cis-2-[1-(azetidin-3-ylmethyl)-4-[4-[2-chloro-4-[[1-methyl-5-[1-(1H-pyrrolo[3,2-c]pyridin-6-yl)-3-(trifluoromethyl)pyrazol-4-yl]imidazole-2-carbonyl]amino]benzoyl]piperazine-1-carbonyl]piperidin-1-ium-1-yl]acetic acid. 1:1 2,2,2-trifluoroacetate] gave an IC90 of 0.2 µM.
